In patent publication US5100663A, “Tyr-Gly compositions useful in increasing immune response” (priority 1990, dated 1992):
Where two headings read alike, the source gives them in different places. Non-standard residues stand in square brackets, D forms with d. Residues, ends and D or L forms follow the SMILES beside them.

How the values were obtained:
[1] = test system: cell-mediated immune system response; experiment: Amplifier (immunological) activity of HPLC fractions and their constituents; set-up: species or system human; conditions: for amplifier / immunological activity: HPLC fractions of human leukocyte dialysate and constituents; for immunological activity as assayed by DH test: moieties in effluents of Example 5 process
Description: Absorbance was monitored at […], 0.1 Absorbance Units=Full Scale. […] The first peak was lower than the second and third, in terms of absorbance units, and is believed to be an artifact of the system associated with the ethanol solvent or due to elution of salts. The second and third peaks varied in relative height from preparation to preparation.
Other moieties found present in effluents of this process were Gly-Gly, Ser-Phe, and Ala, along with possibly other amino acid residues as well.

[2] = test system: DH response to tetanus toxoid (TT); set-up: species or system human; conditions: in vivo
[3] = test system: IL-2 receptors on T-helper cells; experiment: T-helper cell IL-2 receptor expression assay; format: cell-based, human
[4] = test system: L1210 leukemia cells in BDF1 strain mice; experiment: Mouse L1210 leukemia survival test; format: in vivo; conditions: 2 fg intradermally every third day (about 100 fg/kg); 5 mice per group; present-tense example
Description: Ten BDF1 strain mice are divided into two groups of 5. Each mouse is injected with 100 L1210 leukemia cells from ascitic fluid of DBA/2 host mice.
(§1) The mice in Group I (control) are thereafter given injections of 0.1 ml sterile saline every third day. The mice in Group II are thereafter given intradermal injections of 2 fg of synthetic YG of Example 20 in 0.1 ml of sterile saline, every third day. The mice weigh approximately 20 g each, so that 2 fg represents approximately 100 fg/kg of bodyweight.
as §1, with “synthetic Tyr-D-Ala-Gly” for “synthetic YG”, “Example 25” for “Example 20”, “mice were” for “mice weigh”

[5] = test system: gamma-interferon production in normal cells; experiment: Antigen-induced production of gamma interferon; format: cell-based, human
Description: The LIF assay is described in Gottlieb et al., Modulation of Human T Cell Production, J. Immunology 132: 256-260 (Jan. 1984), at p. 257. Protocols for the other assays are believed to be known to those skilled in this art. A convenient reference for the gamma-interferon assay in Sinha et al., Bio/Technology 6:810 (1988), at pp. 814-15.
Preparations of 0.1 Lf /ml and 1.0 Lf /ml TT were used to determine the effect of Beta-1.11 (endogenous YG-material) on production of gamma-interferon in normal cells. As before, serial dilutions of Beta-1.11 were prepared from 46.5 pM to 91 fM.

Gly-Gly was tested, and the “amplifier / immunological activity” value [1] was “found to lack intrinsic amplifier activity” and the “immunological activity as assayed by DH test” value [1] was “None of these other moieties appeared to possess immunological activity”.

N[C@@H](Cc1ccc(O)cc1)C(=O)NCC(=O)NCC(=O)O [YGG, L-tyrosylglycylglycine] (H-Tyr-Gly-Gly-OH) was tested, and the “potency relative to corresponding endogenous amplifier materials Beta-1.11 and Beta-1.12” value [2] was “an order of magnitude less potent”.

In the case of “Tyr-Gly-Gly-Phe-Ile (YGGFI; printed: Tyr-Gly-Gly-Phe-Ile)”, the “immunological activity in DH assay” value [2] is reported as “Significant immunological activity is not observed” and the “molar concentration giving activity comparable to YG, relative to YG in Example 21” value [2] is reported as 8-10 orders of magnitude.

For N[C@@H](Cc1ccc(O)cc1)C(=O)NCC(=O)O [synthetic YG, L-tyrosylglycine], the “potency relative to corresponding endogenous amplifier materials Beta-1.11 and Beta-1.12” value [2] was “an order of magnitude less potent”, the “increase of IL-2 receptors (high density maximum), factor” value [3] was “approximately 1.6” and the “concentration giving the highest figure for high density of receptors” value ([3]; TT + serial dilutions) was “approximately 22 fM”. For the same compound, the “mean survival longer than control group” value [4] was “approximately 2.4 days”.

With C[C@@H](NC(=O)[C@@H](N)Cc1ccc(O)cc1)C(=O)NCC(=O)O [Tyr-D-Ala-Gly, L-tyrosyl-D-alanyl-L-glycine] (H-Tyr-[dA]-Gly-OH) the “amplifier effect in DH assay” value [2] was “slightly better than that observed in Table 1 of Gottlieb U.S. Pat. No. 4,699,898”, the “skin reaction without TT” value [2] was “No reaction is observed” and the “concentration at maximum gamma-interferon production” value ([5]; 1.0 Lf/ml TT) was “approximately 20 fM”. For the same compound, the “potency relative to endogenous YG-material” value ([5]; gamma interferon assay, human sources not identical) was “an order of magnitude more potent”, the “concentration giving the highest figure for high density of receptors” value [3] was “approximately 2 fM” and the “effect relative to endogenous material” value [3] was “approximately an order of magnitude less in effect than endogenous YGG-material”. The “increase of IL-2 receptors (high density maximum), factor” value [3] was “approximately 1.5” and the “mean survival longer than control group” value [4] was “approximately 2.8 days”.

In the case of N[C@@H](Cc1ccccc1)C(=O)O [phenylalanine], the “amplifier / immunological activity” value [1] is reported as “found to lack intrinsic amplifier activity”.

For C[C@H](N)C(=O)O [Ala], the “immunological activity as assayed by DH test” value [1] was “None of these other moieties appeared to possess immunological activity”.
